Measurements from patent publication US20250295096A1, “A RODENT MODEL OF FIBRODYSPLASIA OSSIFICANS PROGRESSIVA” (REGENERON PHARMACEUTICALS, INC., priority 2022, published 2025).

Tested on: Acvr1^huecto[R206H]FIEx;[S330P]/+; Nanog-Cre mice ("FOP mice")
Assay: Anti-Activin A antibody treatment of FOP mice: survival and HO formation
Type: in vivo, mouse
Description: Wild type mice and Acvr1^huecto[R206H]FIEx;[S330P]/+; Nanog-Cre mice (“FOP mice”) were treated with an anti-Activin A monoclonal antibody (Garetosmab) or an isotype control antibody.
Wild type mice and Acvr1^huecto[R206H]FIEx;[S330P]/+; Nanog-Cre mice (“FOP mice”) were treated with an anti-Activin A monoclonal antibody (Garetosmab) and an isotype control antibody. […] The deaths in untreated FOP mice are believed to be possibly due to jaw HO.

Garetosmab: anti-Activin A monoclonal antibody
HO formation (compared with isotype control antibody): inhibited HO formation
survival (treatment initiated at 2 weeks of age, survival through 8 weeks of age): 100%
